{"source": "patent US11426454B2", "about": "(priority 2018, dated 2022)", "test_system": "live BCG bacteria", "assay_type": "in vivo, C57BL/6 mice", "conditions": "0.1 mL (approximately 10^6 CFU/mL) under the armpits; isoniazid by gavage; 2×10^6 live BCG challenge one week later; week 4", "data": [{"smiles": "NNC(=O)c1ccncc1", "note": "[Isoniazid, isoniazid]", "values": [{"measurement": "Colony count of lung tissues (CFU)", "result": "34000 ± 13115", "unit": "CFU"}, {"measurement": "Colony count of spleen tissues (CFU)", "result": "6733 ± 2969", "unit": "CFU"}]}]}
